In BindingDB's records for patent US20240173440 (Nuclidium, 2024) one finds IC50 data, which are given here for 2 molecules.

The IC50 is the midpoint of a concentration-inhibition curve. Low readings indicate higher potency, high ones lower potency.

The experiment deals with T1, Prolyl endopeptidase FAP (Homo sapiens, UniProt Q12884).
T1 sequence (Q12884 whole entry): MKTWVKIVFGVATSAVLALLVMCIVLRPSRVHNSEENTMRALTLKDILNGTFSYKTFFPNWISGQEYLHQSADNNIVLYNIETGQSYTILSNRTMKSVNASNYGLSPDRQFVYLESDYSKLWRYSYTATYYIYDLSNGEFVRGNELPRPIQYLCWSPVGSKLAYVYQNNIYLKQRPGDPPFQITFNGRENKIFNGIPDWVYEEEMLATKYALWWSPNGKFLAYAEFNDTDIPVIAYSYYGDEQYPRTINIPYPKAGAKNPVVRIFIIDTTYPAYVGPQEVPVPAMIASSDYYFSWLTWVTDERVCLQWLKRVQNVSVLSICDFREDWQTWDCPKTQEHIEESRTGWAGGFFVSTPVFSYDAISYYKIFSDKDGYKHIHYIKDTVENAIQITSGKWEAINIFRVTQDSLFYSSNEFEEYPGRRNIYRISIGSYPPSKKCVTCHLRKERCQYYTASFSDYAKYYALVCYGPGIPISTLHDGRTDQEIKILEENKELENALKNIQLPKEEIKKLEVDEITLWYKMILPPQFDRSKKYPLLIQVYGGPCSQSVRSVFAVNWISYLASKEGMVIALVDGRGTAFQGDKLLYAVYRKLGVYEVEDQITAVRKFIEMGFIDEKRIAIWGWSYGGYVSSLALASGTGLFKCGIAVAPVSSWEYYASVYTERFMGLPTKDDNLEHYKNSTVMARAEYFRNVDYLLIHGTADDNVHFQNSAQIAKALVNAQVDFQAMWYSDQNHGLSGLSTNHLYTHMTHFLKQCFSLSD
Put plainly: In Vitro hFAP Inhibition Assay. How it is done: FAPI-46 was used as positive control. Experiments were performed in triplicate, and the mean fluorescence values were fitted using Graph Pad Prism 9 (equation used: Y=Bottom+(Top−Bottom)/(1+((X^HillSlope)/(IC50^HillSlope)))).

The molecule `CN(C(=O)CCC(=O)NCCNC(=O)CCC(C(=O)O)[N+]12CC[N+]34CC[N+]5(CC1)CC(=O)[O][Cu]352[O]C(=O)C4)c1ccc2nccc(C(=O)NCC(=O)N3CC(F)(F)C[C@H]3C#N)c2c1` (some centres not stated) [US20240173440, Compound [natCu]Cu-NODAGA-F2] yielded a concentration for half-maximal inhibition (IC50) of 0.12 nM.
To `N#C[C@@H]1CC(F)(F)CN1C(=O)CNC(=O)c1ccnc2ccc(NC(=O)CCC(=O)N3CCN(C(=O)CCC(C(=O)O)[N+]45CC[N+]67CC[N+]8(CC4)CC(=O)[O][Cu]685[O]C(=O)C7)CC3)cc12` (some centres not stated) [US20240173440, Compound [natCu]Cu-NODAGA-F3] belongs 0.04 nM.
